target: T1, recombinant human liver glycogen phosphorylase (HLGPa) (Homo sapiens, UniProt P06737); test: Measurement of liver glycogen phosphorylase activity (enzyme inhibitory activity against HLGPa); type: biochemical; conditions: Sf9 cell lysate expressing recombinant enzyme; reverse reaction (glycogen synthesis from G1-P), phosphate by malachite green, 60 min room temperature
T1 construct: made in house; host or cells: Sf9 insect cells (unpurified cell lysate used as enzyme solution)
T1 sequence (P06737 1-847): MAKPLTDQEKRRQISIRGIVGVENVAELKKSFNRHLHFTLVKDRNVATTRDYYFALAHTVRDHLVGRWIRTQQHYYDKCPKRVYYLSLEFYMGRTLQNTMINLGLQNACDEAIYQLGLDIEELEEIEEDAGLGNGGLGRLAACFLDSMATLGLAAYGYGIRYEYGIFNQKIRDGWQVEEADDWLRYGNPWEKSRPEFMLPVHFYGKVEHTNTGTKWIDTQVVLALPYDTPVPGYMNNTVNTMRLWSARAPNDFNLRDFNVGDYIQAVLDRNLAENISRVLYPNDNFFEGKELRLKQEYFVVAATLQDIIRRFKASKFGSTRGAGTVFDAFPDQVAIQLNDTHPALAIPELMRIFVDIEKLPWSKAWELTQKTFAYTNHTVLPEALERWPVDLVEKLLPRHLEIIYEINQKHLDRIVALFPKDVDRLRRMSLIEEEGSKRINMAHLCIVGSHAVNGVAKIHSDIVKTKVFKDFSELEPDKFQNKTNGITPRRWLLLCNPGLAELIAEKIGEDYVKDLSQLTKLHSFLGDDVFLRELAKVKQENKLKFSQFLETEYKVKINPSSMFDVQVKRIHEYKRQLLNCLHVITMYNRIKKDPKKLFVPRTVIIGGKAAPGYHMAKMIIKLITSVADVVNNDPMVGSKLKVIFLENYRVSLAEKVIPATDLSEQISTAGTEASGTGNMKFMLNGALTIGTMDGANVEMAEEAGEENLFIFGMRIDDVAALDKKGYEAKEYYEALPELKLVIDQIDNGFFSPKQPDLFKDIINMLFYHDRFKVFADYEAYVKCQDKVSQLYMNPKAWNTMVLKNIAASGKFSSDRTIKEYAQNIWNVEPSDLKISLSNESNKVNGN
Protocol: Measurement Method of Liver Glycogen Phosphorylase Activity
The measurement of the glycogen phosphorylase activity was performed by measuring the concentration of phosphoric acic produced by a reverse reaction, that is, a reaction wherein the glycogen phosphorylase synthesizes glycogen from G1-P. A cell lysate of Sf9 cells that forcibly expressed recombinant human liver glycogen phosphorylase was diluted to a protein amount of 80 μg/mL with 1 mM imidazole-hydrochloric acid buffer (pH 7.0, containing 0.2 mM PMSF, 250 mM NaCl, 0.025% BSA) and the dilute cell lysate was used as an enzyme solution of human liver glycogen phosphorylase. As a substrate solution, 25 mM Tris-HCl buffer (pH 7.2, containing 250 mM KCl, 6.25 mM MgCl2, 6.25 mM EGTA, 1.25 mM glucose-1-phosphate, 2.5 mg/ml glycogen, 7.5 mM glucose) was used. The test drug was dissolved in 0.5% dimethyl sulfoxide (DMSO). To a mixture of the test drug (10 μl) and the substrate solution (20 μl) was added an enzyme solution (20 μl) to start the enzyme reaction. As a control, 0.5% DMSO was added instead of the test drug. One free of addition of enzyme was used as a blank. The mixture was reacted at room temperature for 60 min, and a malachite green solution (50 μl) was added. The mixture was further reacted at room temperature for 20 min and absorbance at 650 nm was measured. An enzyme solution was added to the blank simultaneously with the malachite green solution and the measurement was done in the same manner. The percent inhibition (%) of the test drug was calculated from ((value of control−value of the test drug)/(value of control−value of blank))×100 (%).

| IC50 | SMILES |
| --- | --- |
| 360 nM | CC(=O)N[C@H](C(=O)NNC(=O)c1cc2cc(Cl)ccc2[nH]1)c1ccccc1 (stereo in doubt) [Example 5-19, N-(2-(2-(5-chloro-1H-indole-2-carbonyl)hydrazino)-2-oxo-1-phenylethyl)acetamide] |
| 270 nM | CC(=O)Oc1ccc2[nH]c(=O)n(NC(=O)c3cc4cc(C)ccc4[nH]3)c(=O)c2c1 [Example 2-29, acetic acid 3-((5-methyl-1H-indole-2-carbonyl)amino)-1,2,3,4-tetrahydro-2,4-dioxoquinazolin-6-yl ester] |
| 170 nM | COc1ccc([C@H]2NC(=O)N(NC(=O)c3cc4cc(Cl)ccc4[nH]3)C2=O)cc1 [Example 4-20, 5-chloro-1H-indole-2-carboxylic acid ((4R)-2,5-dioxo-4-(4-methoxyphenyl)imidazolidin-1-yl)amide] |
| 78 nM | O=C(NN1C(=O)CCN(c2ccccc2)C1=O)c1cc2cc(Cl)ccc2[nH]1 [Example 3-3, N-(2,4-dioxo-1-phenyl-perhydropyrimidin-3-yl)-5-chloro-1H-indole-2-carboxamide] |
| 50 nM | O=C(NN1C(=O)CCN(c2cccc(F)c2)C1=O)c1cc2cc(Cl)ccc2[nH]1 [Example 3-7, 5-chloro-1H-indole-2-carboxylic acid (1-(3-fluorophenyl)-2,4-dioxoperhydropyrimidin-3-yl)amide] |
| 440 nM | Cc1ccc(N2CCC(=O)N(NC(=O)c3cc4cc(Cl)ccc4[nH]3)C2=O)cc1 [Example 3-13, 5-chloro-1H-indole-2-carboxylic acid (2,4-dioxo-1-(p-tolyl)perhydropyrimidin-3-yl)amide] |
| 160 nM | COc1ccccc1C(=N)NNC(=O)c1cc2cc(Cl)ccc2[nH]1 [Example 6-24, 5-chloro-1H-indole-2-carboxylic acid 2-(imino-(2-methoxyphenyl)-methyl)hydrazide methanesulfonate] |
| 150 nM | Cc1ccccc1N1CCC(=O)N(NC(=O)c2cc3cc(Cl)ccc3[nH]2)C1=O [Example 3-15, 5-chloro-1H-indole-2-carboxylic acid (2,4-dioxo-1-(o-tolyl)perhydropyrimidin-3-yl)amide] |
| 110 nM | Nc1ccc2[nH]c(=O)n(NC(=O)c3cc4cc(Cl)ccc4[nH]3)c(=O)c2c1 [Example 2-16, 5-chloro-1H-indole-2-carboxylic acid (6-amino-1,2,3,4-tetrahydro-2,4-dioxoquinazolin-3-yl)amide] |
| 250 nM | Cc1ccc2[nH]c(C(=O)NNC(=O)c3ccccc3N)cc2c1 [Example 6-28, 2-aminobenzoic acid 2-(5-methyl-1H-indole-2-carbonyl)hydrazide p-toluenesulfonate] |
| > 100 nM | N[C@H](C(=O)NNC(=O)c1cc2cc(Cl)ccc2[nH]1)c1ccccc1 [Example 5-18, 5-chloro-1H-indole-2-carboxylic acid 2-((2S)-2-amino-2-phenylacetyl)hydrazide] |
| 56 nM | Cc1ccc2[nH]c(C(=O)Nn3c(=O)[nH]c4ccc(O)cc4c3=O)cc2c1 [Example 2-28, 5-methyl-1H-indole-2-carboxylic acid (1,2,3,4-tetrahydro-6-hydroxy-2,4-dioxoquinazolin-3-yl)amide] |
| > 100 nM | CN(NC(=O)c1cc2cc(Cl)ccc2[nH]1)C(=O)Nc1ccccc1 [Example 5-8, 5-chloro-1H-indole-2-carboxylic acid 2-(anilinocarbonyl)-2-methylhydrazide] |
| > 100 nM | CC(C)c1ccc2[nH]c(C(=O)Nn3c(=O)[nH]c4cc(F)ccc4c3=O)cc2c1 [Example 2-10, 5-isopropyl-1H-indole-2-carboxylic acid (7-fluoro-1,2,3,4-tetrahydro-2,4-dioxoquinazolin-3-yl)amide] |
| > 100 nM | O=C(NN1C(=O)[C@@H]2CCCN2C1=O)c1cc2cc(Cl)ccc2[nH]1 [Example 4-7, 5-chloro-1H-indole-2-carboxylic acid ((4S)-1,3-dioxo-perhydropyrrolo[1,2-c]imidazol-2-yl)amide] |

More lines, now with the values behind:

| SMILES | IC50 |
| --- | --- |
| Cc1ccc2[nH]c(C(=O)NNC(=O)c3ccc(F)cc3N)cc2c1 [Example 1-63, 2-amino-4-fluorobenzoic acid 2-(5-methyl-1H-indole-2-carbonyl)hydrazide] | 28 nM |
| O=C(NNC(=O)c1cc2ccsc2[nH]1)c1cc2cc(Cl)ccc2[nH]1 [Example 1-125, 6H-thieno[2,3-b]pyrrole-5-carboxylic acid 2-(5-chloro-1H-indole-2-carbonyl)hydrazide] | 190 nM |
| O=C(NNC(=O)c1cc2cc(Cl)ccc2[nH]1)c1cccnc1 [Example 1-43, nicotinic acid 2-(5-chloro-1H-indole-2-carbonyl)hydrazide] | 95 nM |
| Nc1cc(F)ccc1C(=O)NNC(=O)c1cc2cc(Br)ccc2[nH]1 [Example 1-103, 2-amino-4-fluorobenzoic acid 2-(5-bromo-1H-indole-2-carbonyl)hydrazide] | 28 nM |
| O=C(NNC(=O)c1cc2cc(Cl)ccc2[nH]1)c1cccc(Cl)c1 [Example 1-20, 3-chlorobenzoic acid 2-(5-chloro-1H-indole-2-carbonyl)hydrazide] | 35 nM |
| Cc1nc(C(=O)NNC(=O)c2cc3cc(Cl)ccc3[nH]2)c(N)s1 [Example 1-143, 5-amino-2-methylthiazole-4-carboxylic acid 2-(5-chloro-1H-indole-2-carbonyl)hydrazide] | 120 nM |
| O=C(NNC(=O)c1cccc2ccccc12)c1cc2cc(Cl)ccc2[nH]1 [Example 1-92, 5-chloro-1H-indole-2-carboxylic acid 2-(naphthalene-1-carbonyl)hydrazide] | 71 nM |
| O=C(NNC(=O)c1cc2cc(Cl)ccc2[nH]1)c1cn[nH]c1 [Example 1-104, 1H-pyrazole-4-carboxylic acid 2-(5-chloro-1H-indole-2-carbonyl)hydrazide] | 21 nM |
| CN(NC(=O)c1cc2cc(Cl)ccc2[nH]1)C(=O)C1CCCCC1 [Example 1-116, cyclohexanecarboxylic acid 2-(5-chloro-1H-indole-2-carbonyl)-1-methylhydrazide] | 41 nM |
| Cc1nc(C(=O)NNC(=O)c2cc3cc(Cl)ccc3[nH]2)cs1 [Example 1-72, 2-methylthiazole-4-carboxylic acid 2-(5-chloro-1H-indole-2-carbonyl)hydrazide] | > 100 nM |
| O=C(NNC(=O)c1cccs1)c1cc2cc(F)ccc2[nH]1 [Example 1-11, thiophene-2-carboxylic acid 2-(5-fluoro-1H-indole-2-carbonyl)hydrazide] | 72 nM |
| Cc1ccc2[nH]c(C(=O)NNC(=O)c3ccsc3)cc2c1 [Example 1-107, thiophene-3-carboxylic acid 2-(5-methyl-1H-indole-2-carbonyl)hydrazide] | 54 nM |
| O=C(NNC(=O)c1ccc(Cl)s1)c1cc2cc(Cl)ccc2[nH]1 [Example 1-85, 5-chlorothiophene-2-carboxylic acid 2-(5-chloro-1H-indole-2-carbonyl)hydrazide] | 430 nM |
| Nc1cc(Cl)ccc1C(=O)NNC(=O)c1cc2cc(Cl)ccc2[nH]1 [Example 1-54, 2-amino-4-chlorobenzoic acid 2-(5-chloro-1H-indole-2-carbonyl)hydrazide] | 30 nM |
| Cc1cccc(C(=O)NNC(=O)c2cc3cc(Cl)ccc3[nH]2)c1 [Example 1-18, 3-methylbenzoic acid 2-(5-chloro-1H-indole-2-carbonyl)hydrazide] | 99 nM |
| O=C(NNC(=O)c1cc2cc(Cl)ccc2[nH]1)c1cccc(-c2nnn[nH]2)c1 [Example 1-60, 3-(1H-tetrazol-5-yl)benzoic acid 2-(5-chloro-1H-indole-2-carbonyl)hydrazide] | > 100 nM |
| Cc1ccc(N)c(C(=O)NNC(=O)c2cc3cc(Cl)ccc3[nH]2)c1 [Example 1-97, 2-amino-5-methylbenzoic acid 2-(5-chloro-1H-indole-2-carbonyl)hydrazide] | 10 nM |

— US20050054696A1, “Indole compounds and medicinal use thereof” (priority 2001, published 2005)
